{"source": "patent US12018021B2", "about": "(UCB Biopharma SRL, priority 2018, dated 2024)", "data": [{"target": "IgE-Tb / sFcεRIα-Y131A-AF488 (Homo sapiens, UniProt P01854, N146Q/N252Q)", "sequence (P01854 whole entry N146Q/N252Q)": "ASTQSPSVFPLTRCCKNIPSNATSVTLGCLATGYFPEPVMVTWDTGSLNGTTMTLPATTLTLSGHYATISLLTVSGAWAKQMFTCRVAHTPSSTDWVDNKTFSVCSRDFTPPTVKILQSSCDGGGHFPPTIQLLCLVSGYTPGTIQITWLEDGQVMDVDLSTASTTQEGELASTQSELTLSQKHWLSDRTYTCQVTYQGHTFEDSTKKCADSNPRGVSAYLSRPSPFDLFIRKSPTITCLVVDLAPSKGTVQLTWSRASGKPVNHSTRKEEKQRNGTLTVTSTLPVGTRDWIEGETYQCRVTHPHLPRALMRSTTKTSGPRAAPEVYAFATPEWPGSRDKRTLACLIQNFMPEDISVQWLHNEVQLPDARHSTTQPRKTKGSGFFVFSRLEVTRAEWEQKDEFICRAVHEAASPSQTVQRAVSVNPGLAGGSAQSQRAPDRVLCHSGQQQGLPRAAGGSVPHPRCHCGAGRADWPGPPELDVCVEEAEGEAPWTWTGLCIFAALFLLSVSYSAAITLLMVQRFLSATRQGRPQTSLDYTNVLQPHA", "test": "IgE-Tb / sFcεRIα-Y131A-AF488 FRET assay (protocol for examples 234 to 501)", "type": "binding", "details": "examples 234 to 501: compound with IgE-Tb 30 minutes before sFcεRIα-Y131A-AF488, incubated 18 hours at room temperature; read-out: Y131A FRET IC50 range", "procedure": "For examples 234 to 501, the assay was conducted according to the following: Each assay reaction was conducted in a volume of 25 μl in a 384-well half-volume plate. 10 point compound serial dilutions (3-fold) were generated in DMSO at a concentration of ×50 that of the final assay concentration (FAC). Compound solutions were then prepared by diluting 10-fold in assay buffer. For the assay, 5l of diluted compound was added to 10 μl of IgE-Tb and incubated for 30 minutes before the addition of 10 μ[…]. FRET reagents FACs were 5 nM IgE-Tb, 25 nM […]. Usually the top FAC of compound in the assay was 10 μM. The final DMSO concentration was 2%. […] The maximum FRET signal (MAX) was measured in wells containing FRET reagents but no compound. The assay was incubated for 18 hours at room temperature, protected from light and evaporation, and with gentle agitation. Measurement of FRET for each well was carried out by exciting at 337 nm and measuring emission at 490/520 nm using a PHERAstar FSX plate reader (BMG Labtech). FRET ratio was calculated as follows: Emission at 520/7Emission at 490×1000. The FRET ratio was used for the data analysis. […] Z' above 0.5 was considered a good assay. Background signal (MIN) was subtracted from all wells. […] Percent inhibition was plotted against compound concentration. IC50 values for each compound were determined using four parameter logistic fit model using the XLFIT5 software package.", "units": {"IC50": "nM"}, "values": [{"smiles": "Cc1c(Nc2nncn2[C@H]2CCc3sc(NC(=O)C4CC4)c(C(=O)NCC4CC4)c3C2)cccc1S(C)(=N)=O", "note": "(mixture of isomers) [Example 235, (5S)-2-cyclopropaneamido-N-(cyclopropylmethyl)-5-[3-({3-[imino(methyl)oxo-lambda6-sulfanyl]-2-methylphenyl}amino)-4H-1,2,4-triazol-4-yl]-4,5,6,7-tetrahydro-1-benzothiophene-3-carboxamide]", "IC50": "< 1000"}, {"smiles": "CC(=O)N1CCC(C)(Nc2nncn2[C@H]2CCc3sc(NC(=O)C4CC4)c(C(=O)NCC4CC4)c3C2)C1", "note": "(mixture of isomers) [Example 238, (5S)-5-{3-[(1-acetyl-3-methylpyrrolidin-3-yl)amino]-4H-1,2,4-triazol-4-yl}-2-cyclopropaneamido-N-(cyclopropylmethyl)-4,5,6,7-tetrahydro-1-benzothiophene-3-carboxamide]", "IC50": "< 1000"}, {"smiles": "CS(=N)(=O)c1cccc(Nc2nncn2[C@H]2CCc3sc(NC(=O)C4CC4)c(C(=O)NCC4CC4)c3C2)c1", "note": "(mixture of isomers) [Example 252, (5S)-2-(cyclopropanecarbonylamino)-N-(cyclopropylmethyl)-5-[3-[3-(methylsulfonimidoyl)anilino]-1,2,4-triazol-4-yl]-4,5,6,7-tetrahydrobenzothiophene-3-carboxamide]", "IC50": "< 1000"}, {"smiles": "Cc1ccc(C2CC(Nc3nncn3[C@H]3CCc4sc(NC(=O)C5CC5)c(C(=O)NCC5CC5)c4C3)C2)cn1", "note": "(mixture of isomers) [Example 275, (5S)-2-(cyclopropanecarbonylamino)-N-(cyclopropylmethyl)-5-[3-[[3-(6-methyl-3-pyridyl)cyclobutyl]amino]-1,2,4-triazol-4-yl]-4,5,6,7-tetrahydrobenzothiophene-3-carboxamide]", "IC50": "< 1000"}, {"smiles": "Cn1nc(OC(F)F)cc1Nc1nncn1[C@H]1CCc2sc(NC(=O)C3CC3(F)F)c(C(=O)NCC3CC3)c2C1", "note": "(mixture of isomers) [Example 344, (5S)—N-(cyclopropylmethyl)-2-[(2,2-difluorocyclopropanecarbonyl)amino]-5-[3-[[5-(difluoromethoxy)-2-methylpyrazol-3-yl]amino]-1,2,4-triazol-4-yl]-4,5,6,7-tetrahydro-1-benzothiophene-3-carboxamide]", "IC50": "< 1000"}, {"smiles": "Cn1nc(OC(F)F)cc1Nc1nncn1[C@H]1CCc2sc(NC(=O)[C@H]3C[C@H]3F)c(C(=O)NCC3CC3)c2C1", "note": "(mixture of isomers) [Example 348, (5S)—N-(cyclopropylmethyl)-5-[3-[[5-(difluoromethoxy)-2-methylpyrazol-3-yl]amino]-1,2,4-triazol-4-yl]-2-[[(1RS,2RS)-2-fluorocyclopropanecarbonyl]amino]-4,5,6,7-tetrahydro-1-benzothiophene-3-carboxamide]", "IC50": "< 1000"}, {"smiles": "Cn1nc(C(F)(F)F)cc1Nc1nncn1[C@H]1CCc2sc(NC(=O)[C@H]3C[C@H]3F)c(C(=O)NCC3CC3)c2C1", "note": "(mixture of isomers) [Example 355, (5S)—N-(cyclopropylmethyl)-2-[[(1RS,2RS)-2-fluorocyclopropanecarbonyl]amino]-5-[3-[[2-methyl-5-(trifluoromethyl)pyrazol-3-yl]amino]-1,2,4-triazol-4-yl]-4,5,6,7-tetrahydro-1-benzothiophene-3-carboxamide]", "IC50": "< 1000"}, {"smiles": "Cn1nc(C(F)F)cc1Nc1nncn1[C@H]1CCc2sc(NC(=O)[C@H]3C[C@H]3F)c(C(=O)NCC3CC3)c2C1", "note": "(mixture of isomers) [Example 361, (5S)—N-(cyclopropylmethyl)-5-[3-[[5-(difluoromethyl)-2-methylpyrazol-3-yl]amino]-1,2,4-triazol-4-yl]-2-[[(1RS,2RS)-2-fluorocyclopropanecarbonyl]amino]-4,5,6,7-tetrahydro-1-benzothiophene-3-carboxamide]", "IC50": "< 1000"}, {"smiles": "Cn1nc(C(F)F)cc1Nc1nncn1[C@H]1CCc2sc(NC(=O)C3CC3(F)F)c(C(=O)NCC3CC3)c2C1", "note": "(mixture of isomers) [Example 364, (5S)—N-(cyclopropylmethyl)-2-[(2,2-difluorocyclopropanecarbonyl)amino]-5-[3-[[5-(difluoromethyl)-2-methylpyrazol-3-yl]amino]-1,2,4-triazol-4-yl]-4,5,6,7-tetrahydro-1-benzothiophene-3-carboxamide]", "IC50": "< 1000"}, {"smiles": "CC1CC1C(=O)Nc1sc2c(c1C(=O)NCC1CC1)C[C@@H](n1cnnc1Nc1cc(C(F)F)nn1C)CC2", "note": "(mixture of isomers) [Example 369, (5S)—N-(cyclopropylmethyl)-5-[3-[[5-(difluoromethyl)-2-methylpyrazol-3-yl]amino]-1,2,4-triazol-4-yl]-2-[(2-methylcyclopropanecarbonyl)amino]-4,5,6,7-tetrahydro-1-benzothiophene-3-carboxamide]", "IC50": "< 1000"}, {"smiles": "Cn1nc(C(F)F)cc1Nc1nncn1[C@H]1CCc2sc(NC(=O)C3CC3)c(C(=O)NCC3CC3(F)F)c2C1", "note": "(mixture of isomers) [Example 381, (5S)-2-(cyclopropanecarbonylamino)-N-[(2,2-difluorocyclopropyl)methyl]-5-[3-[[5-(difluoromethyl)-2-methylpyrazol-3-yl]amino]-1,2,4-triazol-4-yl]-4,5,6,7-tetrahydro-1-benzothiophene-3-carboxamide]", "IC50": "< 1000"}, {"smiles": "Cn1nc(C(F)F)cc1Nc1nncn1[C@H]1CCc2sc(NC(=O)C3CC3)c(C(=O)NCC3CC34CC4)c2C1", "note": "(mixture of isomers) [Example 384, (5S)-2-(cyclopropanecarbonylamino)-5-[3-[[5-(difluoromethyl)-2-methylpyrazol-3-yl]amino]-1,2,4-triazol-4-yl]-N-(spiro[2.2]pentan-2-ylmethyl)-4,5,6,7-tetrahydro-1-benzothiophene-3-carboxamide]", "IC50": "< 1000"}, {"smiles": "Cn1nc(C(F)(F)F)cc1Nc1nncn1[C@H]1CCc2sc(NC(=O)[C@H]3C[C@H]3F)c(C(=O)NCC3CC3(F)F)c2C1", "note": "(mixture of isomers) [Example 396, (5S)—N-[(2,2-difluorocyclopropyl)methyl]-2-[[(1R,2R)-2-fluorocyclopropanecarbonyl]amino]-5-[3-[[2-methyl-5-(trifluoromethyl)pyrazol-3-yl]amino]-1,2,4-triazol-4-yl]-4,5,6,7-tetrahydro-1-benzothiophene-3-carboxamide]", "IC50": "< 1000"}, {"smiles": "Cn1nc(C(F)(F)F)cc1Nc1nncn1[C@H]1CCc2sc(NC(=O)[C@H]3C[C@H]3F)c(C(=O)NC[C@H]3C[C@H](F)C3)c2C1", "note": "(mixture of isomers) [Example 400, (5S)—N-[trans-(3-fluorocyclobutyl)methyl]-2-[[(1R,2R)-2-fluorocyclopropanecarbonyl]amino]-5-[3-[[2-methyl-5-(trifluoromethyl)pyrazol-3-yl]amino]-1,2,4-triazol-4-yl]-4,5,6,7-tetrahydro-1-benzothiophene-3-carboxamide]", "IC50": "< 1000"}, {"smiles": "Cn1nc(C(F)F)cc1Nc1nncn1[C@H]1CCc2sc(NC(=O)[C@H]3CC34CC4)c(C(=O)NCC3CC3(F)F)c2C1", "note": "(mixture of isomers) [Example 408, (5S)—N-[(2,2-Difluorocyclopropyl)methyl]-5-[3-[[5-(difluoromethyl)-2-methylpyrazol-3-yl]amino]-1,2,4-triazol-4-yl]-2-[[(2S)-spiro [2.2]pentane-2-carbonyl]amino]-4,5,6,7-tetrahydro-1-benzothiophene-3-carboxamide]", "IC50": "< 1000"}, {"smiles": "Cn1nc(C(F)F)cc1Nc1nncn1[C@H]1CCc2sc(NC(=O)[C@H]3CC34CC4)c(C(=O)NC3CC34CC4)c2C1", "note": "(mixture of isomers) [Example 411, (5S)-5-[3-[[5-(Difluoromethyl)-2-methylpyrazol-3-yl]amino]-1,2,4-triazol-4-yl]-2-[[(2S)-spiro[2.2]pentane-2-carbonyl]amino]-N-spiro[2.2]pentan-2-yl-4,5,6,7-tetrahydro-1-benzothiophene-3-carboxamide]", "IC50": "< 1000"}, {"smiles": "CCOC(=O)c1c(NC(=O)C2CC23CC3)sc2c1C[C@@H](n1cnnc1Nc1cc(C(F)F)nn1C)CC2", "note": "(mixture of isomers) [Example 417a, Ethyl (5S)-5-[3-[[5-(difluoromethyl)-2-methyl-pyrazol-3-yl]amino]-1,2,4-triazol-4-yl]-2-(spiro[2.2]pentane-2-carbonylamino)-4,5,6,7-tetrahydrobenzothiophene-3-carboxylate]", "IC50": "< 1000"}, {"smiles": "Cn1nc(OC(F)F)cc1Nc1nncn1[C@H]1CCc2sc(NC(=O)C3CC3)c(C(=O)NC3CC34CC4)c2C1", "note": "(mixture of isomers) [Example 452, (5S)-2-(cyclopropanecarbonylamino)-5-[3-[[5-(difluoromethoxy)-2-methylpyrazol-3-yl]amino]-1,2,4-triazol-4-yl]-N-spiro[2.2]pentan-2-yl-4,5,6,7-tetrahydro-1-benzothiophene-3-carboxamide]", "IC50": "< 1000"}, {"smiles": "Cn1nc(OC(F)F)cc1Nc1nncn1[C@H]1CCc2sc(NC(=O)C3CC3)c(C(=O)NC[C@H]3C[C@H]3F)c2C1", "note": "(mixture of isomers) [Example 454, (5S)-2-(cyclopropanecarbonylamino)-5-[3-[[5-(difluoromethoxy)-2-methylpyrazol-3-yl]amino]-1,2,4-triazol-4-yl]-N-[[(1RS,2RS)-2-fluorocyclopropyl]methyl]-4,5,6,7-tetrahydro-1-benzothiophene-3-carboxamide]", "IC50": "< 1000"}]}]}
